Data from BindingDB's records for doi:10.1021/jm9706325 (Monash University (Parkville Campus), 1999).

Molecular target: 5-hydroxytryptamine receptor 1D (Bos taurus)
Assay: Binding affinity against 5-hydroxytryptamine 1D receptor in calf caudate homogenates.

Row | Ki | Structure (SMILES)
1 | 1.32 µM | CN(C)CCc1c(C(=O)NCc2ccccc2)[nH]c2ccc(CCN3C(=O)CNC3=O)cc12
2 | 3.8 µM | CN(C)CCc1c(C(=O)NCc2ccccc2)[nH]c2ccc(CCN3C(=O)NC(C)(C)C3=O)cc12
